From patent publication US20100286145A1, “ISOPHTHALAMIDE DERIVATIVES INHIBITING BETA-SECRETASE ACTIVITY” (CoMentis, Inc., priority 2007, published 2010)
pIC50, pKi: −log10 of the molar value. Read-outs that look alike come from different tables or passages of the source.

What was measured:
[1] = molecular target: memapsin 2 (Homo sapiens, UniProt P56817); experiment: Inhibition of memapsin 2 beta-secretase activity (fluorogenic substrate FS-2); format: biochemical; settings: memapsin 2, pH 4, 37° C., fluorogenic substrate FS-2; read-out: M2Ki
Chain of memapsin 2 (P56817 46-501): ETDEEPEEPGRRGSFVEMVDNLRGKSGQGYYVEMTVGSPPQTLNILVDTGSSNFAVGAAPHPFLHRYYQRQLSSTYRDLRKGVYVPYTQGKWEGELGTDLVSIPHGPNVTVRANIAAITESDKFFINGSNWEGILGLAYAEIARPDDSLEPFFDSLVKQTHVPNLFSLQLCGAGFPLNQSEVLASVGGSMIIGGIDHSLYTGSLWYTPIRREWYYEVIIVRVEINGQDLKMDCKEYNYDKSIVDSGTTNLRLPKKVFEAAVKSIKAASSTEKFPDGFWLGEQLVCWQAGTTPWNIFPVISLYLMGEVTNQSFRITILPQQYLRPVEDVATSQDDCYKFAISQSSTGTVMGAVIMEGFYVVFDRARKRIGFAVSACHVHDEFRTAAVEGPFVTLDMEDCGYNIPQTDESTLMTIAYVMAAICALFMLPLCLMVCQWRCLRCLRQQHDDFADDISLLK
How it was run: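 Memapsin 2 pre-incubated 20 min with compound at pH 4, 37° C, then FS-2 substrate (MCA-SEVNLDAEFK-DNP, APP Swedish cleavage site) added. Rate of fluorescence increase compared with uninhibited controls, fitted to a tight-binding inhibition model.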

[2] = test system: Aβ production in Chinese hamster ovary cells that over-express human APP695 with the London and Swedish mutations; experiment: Cellular Aβ IC50 determination (Aβ40 sandwich ELISA); format: cell-based; settings: Cricetulus griseus
How it was run: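 CHO cells overexpressing human APP695 with London and Swedish mutations, seeded at 10% confluency, treated with compounds up to about 4 μM final (0.4% DMSO). Secreted Aβ40 measured by sandwich ELISA relative to control and fitted to a 4-parameter IC50 model.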

[3] = cellular Aβ production, read-out: IC50

Compound	pKi [1]	pIC50 [2, 3]	pIC50 [2]
Cc1csc(CN(C)C(=O)c2cccc(C(=O)N[C@@H](Cc3ccccc3)[C@H](O)CNCc3cc(O)cc(C(C)(C)C)c3)c2)n1 [Compound 215, N1-((2S,3R)-4-(3-tert-butyl-5-hydroxybenzylamino)-3-hydroxy-1-phenylbutan-2-yl)-N3-methyl-N3-((4-methylthiazol-2-yl)methyl)isophthalamide]	> 6.52	> 6.00	
Cc1csc(CN(C)C(=O)c2cccc(C(=O)N[C@@H](Cc3ccccc3)[C@H](O)CNCc3cncc(Cl)c3)c2)n1 [Compound 216, N1-((2S,3R)-4-((5-chloropyridin-3-yl)methylamino)-3-hydroxy-1-phenylbutan-2-yl)-N3-methyl-N3-((4-methylthiazol-2-yl)methyl)isophthalamide]	> 6.52	> 6.00	
Cc1csc(CN(C)C(=O)c2cccc(C(=O)N[C@@H](Cc3ccccc3)[C@H](O)CNCc3cncc(C(C)(F)F)c3)c2)n1 [Compound 217, N1-((2S,3R)-4-((5-(1,1-difluoroethyl)pyridin-3-yl)methylamino)-3-hydroxy-1-phenylbutan-2-yl)-N3-methyl-N3-((4-methylthiazol-2-yl)methyl)isophthalamide]	> 6.52	> 6.00	
COc1cc(CNC[C@@H](O)[C@H](Cc2ccccc2)NC(=O)c2cccc(C(=O)N(C)Cc3nc(C)cs3)c2)cc([N+](=O)[O-])c1 [Compound 221, N1-((2S,3R)-3-hydroxy-4-(3-methoxy-5-nitrobenzylamino)-1-phenylbutan-2-yl)-N3-methyl-N3-((4-methylthiazol-2-yl)methyl)isophthalamide]	> 6.52	> 6.00	
Cc1csc(CN(C)C(=O)c2cc(C(=O)N[C@@H](Cc3ccccc3)[C@H](O)CNCc3cccc(C(F)(F)F)c3)cc(-c3cnccn3)c2)n1 [Compound 222, N1-((2S,3R)-3-hydroxy-1-phenyl-4-(3-(trifluoromethyl)benzylamino)butan-2-yl)-N3-methyl-N3-((4-methylthiazol-2-yl)methyl)-5-(pyrazin-2-yl)isophthalamide]	> 6.52	> 6.00	
Cc1csc(CN(C)C(=O)c2cc(C(=O)N[C@@H](Cc3ccccc3)[C@H](O)CNCc3cncc(C(C)C)c3)cc(C(C)O)c2)n1 (stereo partly drawn) [Compound 223, N1-((2S,3R)-3-hydroxy-4-((5-isopropylpyridin-3-yl)methylamino)-1-phenylbutan-2-yl)-5-(1-hydroxyethyl)-N3-methyl-N3-((4-methylthiazol-2-yl)methyl)isophthalamide]	> 6.52	> 6.00	
COc1cc(CNC[C@@H](O)[C@H](Cc2ccccc2)NC(=O)c2cccc(C(=O)N(C)Cc3nc(C)cs3)c2)cc(N(C)C)c1 [Compound 224, N1-((2S,3R)-4-(3-(dimethylamino)-5-methoxybenzylamino)-3-hydroxy-1-phenylbutan-2-yl)-N3-methyl-N3-((4-methylthiazol-2-yl)methyl)isophthalamide]	> 6.52	> 6.00	
Cc1csc(CN(C)C(=O)c2cccc(C(=O)N[C@@H](Cc3ccccc3)[C@H](O)CNCc3cncc(F)c3)c2)n1 [Compound 225, N1-((2S,3R)-4-((5-fluoropyridin-3-yl)methylamino)-3-hydroxy-1-phenylbutan-2-yl)-N3-methyl-N3-((4-methylthiazol-2-yl)methyl)isophthalamide]	> 6.52	5.30 to 6.00	
Cc1csc(CN(C)C(=O)c2cc(C(=O)N[C@@H](Cc3ccccc3)[C@H](O)CNCc3cncc(C(C)(C)C)c3)cc(N(C)C)c2)n1 [Compound 226, N1-((2S,3R)-4-((5-tert-butylpyridin-3-yl)methylamino)-3-hydroxy-1-phenylbutan-2-yl)-5-(dimethylamino)-N3-methyl-N3-((4-methylthiazol-2-yl)methyl)isophthalamide]	> 6.52	> 6.00	
Cc1csc(CN(C)C(=O)c2cc(C(=O)N[C@@H](Cc3ccccc3)[C@H](O)CNCc3cccc(C(C)(F)F)c3)cc(N(C)C)c2)n1 [Compound 227, N1-((2S,3R)-4-(3-(1,1-difluoroethyl)benzylamino)-3-hydroxy-1-phenylbutan-2-yl)-5-(dimethylamino)-N3-methyl-N3-((4-methylthiazol-2-yl)methyl)isophthalamide]	> 6.52	> 6.00	
Cc1csc(CN(C)C(=O)c2cccc(C(=O)N[C@@H](Cc3ccccc3)[C@H](O)CNCc3cc(C(C)C)cc(S(=O)(=O)C(C)C)c3)c2)n1 [Compound 229, N1-((2S,3R)-3-hydroxy-4-(3-isopropyl-5-(isopropylsulfonyl)benzylamino)-1-phenylbutan-2-yl)-N3-methyl-N3-((4-methylthiazol-2-yl)methyl)isophthalamide]	> 6.52	< 5.30	
COc1cccc(CNC[C@@H](O)[C@H](Cc2ccccc2)NC(=O)c2cc(C(=O)N(C)Cc3nc(C)cs3)cc(N3CCCCC3)c2)c1 [Compound 230, N1-((2S,3R)-3-hydroxy-4-(3-methoxybenzylamino)-1-phenylbutan-2-yl)-N3-methyl-N3-((4-methylthiazol-2-yl)methyl)-5-(piperidin-1-yl)isophthalamide]	> 6.52	> 6.00	
Cc1csc(CN(C)C(=O)c2cc(C(=O)N[C@@H](Cc3ccccc3)[C@H](O)CNCc3cncc(C(C)C)c3)cc(N3CCCCC3)c2)n1 [Compound 231, N1-((2S,3R)-3-hydroxy-4-((5-isopropylpyridin-3-yl)methylamino)-1-phenylbutan-2-yl)-N3-methyl-N3-((4-methylthiazol-2-yl)methyl)-5-(piperidin-1-yl)isophthalamide]	> 6.52	< 5.30	
Cc1cc(C(=O)N[C@@H](Cc2ccccc2)[C@H](O)CNCc2cccc(C(F)(F)F)c2)cc(C(=O)N(C)Cc2nc(C)cs2)c1 [Compound 232, N1-((2S,3R)-3-hydroxy-1-phenyl-4-(3-(trifluoromethyl)benzylamino)butan-2-yl)-N3,5-dimethyl-N3-((4-methylthiazol-2-yl)methyl)isophthalamide]	> 6.52	> 6.00	
Cc1csc(CN(C)C(=O)c2cc(C(=O)N[C@@H](Cc3ccccc3)[C@H](O)CNCc3cccc(C(F)(F)F)c3)cc(N3CCCC3=O)c2)n1 [Compound 233, N1-((2S,3R)-3-hydroxy-1-phenyl-4-(3-(trifluoromethyl)benzylamino)butan-2-yl)-N3-methyl-N3-((4-methylthiazol-2-yl)methyl)-5-(2-oxopyrrolidin-1-yl)isophthalamide]	> 6.52	> 6.00	
Cc1csc(CN(C)C(=O)c2cccc(C(=O)N[C@@H](Cc3ccccc3)[C@H](O)CNCc3cc(OC(=O)N4CCOCC4)cc(C(C)C)c3)c2)n1 [Compound 234, 3-(((2R,3S)-2-hydroxy-3-(3-(methyl((4-methylthiazol-2-yl)methyl)carbamoyl)benzamido)-4-phenylbutylamino)methyl)-5-isopropylphenyl morpholine-4-carboxylate]	> 6.52		> 6.00
Cc1noc(CN(C)C(=O)c2cccc(C(=O)N[C@@H](Cc3ccccc3)[C@H](O)CNCc3cncc(C(C)C)c3)c2)n1 [Compound 235, N1-((2S,3R)-3-hydroxy-4-((5-isopropylpyridin-3-yl)methylamino)-1-phenylbutan-2-yl)-N3-methyl-N3-((3-methyl-1,2,4-oxadiazol-5-yl)methyl)isophthalamide]	> 6.52	> 6.00	
